Source: patent US6806293B1, “Use of pheromone compounds having MAP kinase modulating activity” (Darley Pharmaceuticals LTD, priority 2001, dated 2004)

Legend:
[1] = tested on: MAP kinase; assay: MAP kinase activation in Rat1 cells compared to EGF and TPA (Example 3, western blot, densitometry); assay type: cell-based, rat; conditions: 15 minutes; for Activity (% of EGF-activation), Conc. 2 / Activity (% of TPA-activation), Conc. 2: compound 1 × 10^-5 M; for Activity (% of EGF-activation), Conc. 2 / Activity (% of EGF-activation), Conc. 1: relative to EGF 50 ng/ml; for Activity (% of TPA-activation), Conc. 2 / Activity (% of TPA-activation), Conc. 1: relative to TPA 100 nM; for Activity (% of EGF-activation), Conc. 1 / Activity (% of TPA-activation), Conc. 1: compound 1 × 10^-4 M
Description: Rat1 cells were grown in 6 cm cell culture dishes in a tissue culture incubator at 37° C. in an atmosphere containing 5% carbon dioxide. The Rat1 cells were serum-starved for 16 hours. Three groups of the Rat1 cells were then treated for 15 minutes with either epidermal growth factor (EGF) (50 ng/ml), 12-O-tetradecanoylphorbol-13-acetate (TPA) (100nM), or with one of the pheromone compounds at one of two concentrations identified in Table 2 below. EGF and TPA are compounds which are known to activate MAP kinase and therefore serve as a basis of comparing the relative activity of the pheromone compounds. The cells were then washed with phosphate buffered saline (PBS) and lysed with radioimmunoprotein assay (RIPA) buffer. The proteins were then separated by sodium dodecyl sulfate-polyacrylamide gel electrophoresis (SDS-PAGE), transferred onto a nitrocellulose membrane and probed with anti-MAPK antibodies to produce a blot. The MAP kinase activity for the EGF-treated cells, the TPA-treated cells and the pheromone compound-treated cells, was analyzed and calculated using densitometric analysis. The results shown in Table 2 are presented as percent of EGF-stimulated active MAP kinase levels or TPA-stimulated active MAP kinase levels, respectively.

[2] = tested on: MAP kinase; assay: Screening method for pheromone compounds having MAP kinase modulating activity in Rat1 cells (Example 1); assay type: cell-based, rat; conditions: observed on screening in accordance with the described methods
Description: In a preferred screening method, as set forth in Example 1 herein, pheromone compounds with MAP kinase modulating activity are identified using Rat1 cells grown in cell culture dishes. Samples of the pheromone compound are added to respective cell culture dishes containing the Rat1 cells and incubated. A control group is established by treating a separate group of cell culture dishes containing Rat1 cells with the same solutions absent the pheromone compound. After incubation, the Rat1 cells are stimulated with epidermal growth factor to stimulate MAP kinase activation in the Rat1 cells. Upon completion of the incubation period, the Rat1 cells in each of the culture dishes are separately processed to obtain the corresponding cell extract containing proteins indicative of active kinase. The proteins are then separated using known electrophoresis techniques and prepared as a blot for the detection and measurement of active MAP kinase. The resulting blot is analyzed using densitometric techniques to measure the corresponding activity of the tested pheromone compound.
Rat1 cells were grown in 6 cm cell culture dishes in a tissue culture incubator at 37° C. in an atmosphere containing 5% carbon dioxide. The cells were serum-starved for 16 hours. […] A control group was established by adding to the remaining cell culture dishes the same solution absent the pheromone compound. After the 15 minute period, the Rat1 cells were stimulated with epidermal growth factor (EGF) (50 ng/ml) for about 15 minutes for one group and 30 minutes for a second group.
The Rat1 cells were then treated to remove the corresponding incubation medium and then the cells were rinsed twice each with 5 ml of cold phosphate buffered saline (PBS) and once with 5 ml of cold homogenizing buffer (Buffer H) containing 50 mM of β-glycerophosphate, (pH 7.3), 1.5 mM of ethylenebis(oxyethylenenitrilo)tetraacetic acid (EGTA), 1 mM of ethylenediaminetetraacetic acid (EDTA), 1 mM of dithiothreitol (DTT), 0.1 mM sodium orthovanadate, 1 mM benzamidine, 10 μg/ml of aprotinin, 10 μg/ml of leupeptin, and 2 μg/ml of pepstatin (2 μg/ml)+1% Triton-X-100.
The cells were harvested and lysed with 350 μl of cold Buffer H. Alternatively, the cells may be harvested and lysed with radioimmunoprotein assay buffer (RIPA buffer). Each extract was then centrifuged at 15,000×g for 15 minutes at 4° C. The resulting supernatants contained the protein extracts to be examined and were transferred to fresh, pre-cooled test tubes and kept on ice.
The proteins were then separated by sodium dodecyl sulfate-polyacrylamide gel electrophoresis (SDS-PAGE) and transferred, by western blotting, onto a nitrocellulose membrane.
The blot produced above was blocked with 2% bovine serum albumin (BSA) in Tris-buffered saline/Tween-20 (TBST) for 1 hour. The blot was then incubated with a monoclonal anti-active MAP kinase antibody obtained from Sigma, and diluted according to the manufacturer recommendations. The blot was incubated overnight at 4° C. Alternatively, the blot may also be incubated for about 30 minutes at 37° C., or from one to two hours at room temperature.
The treated blot was placed in a flat container and washed at least 3 times for 15 minutes each with TBST buffer at room temperature. The blot was then incubated with alkaline phosphatase-conjugated goat anti-mouse IgG obtained from Jackson Laboratories, diluted according to the manufacturer recommendations in TBST buffer for 45 minutes at room temperature. The blot was then subjected to a second washing, repeated 3 times, for 10 minutes each with TBST. An alkaline phosphatase (AP) detection technique was utilized to detect and measure the presence of active MAP kinase. Enhanced MAP kinase activity as compared to control is evidence that the compound is a MAP kinase activator. Lowered MAP kinase activity as compared to control is evidence that the compound is a MAP kinase inhibitor. […]

Row | Molecule | Activity (% of EGF-activation), Conc. 2 [1] [%] | Activity (% of TPA-activation), Conc. 2 [1] [%] | mitogen-activating protein kinase modulation activity (activator or inhibitor) [2] | Activity (% of EGF-activation), Conc. 1 [1] [%] | Activity (% of TPA-activation), Conc. 1 [1] [%]
1 | CCCCCCCC/C=C\CCCCCCCCCCC [Cis-9-Heneicosene] | 3 | 22 | activators |  | 
2 | CCCCCC/C=C\CCCCCCOC(C)=O [Cis-7-Tetradecenyl-acetate] | 10 | 80 | activators | 8 | 21
3 | CCCC/C=C\CCCCCCCCOC=O [Cis-9-Tetradecenyl-formate] | 12 | 55 | activators | 12 | 90
4 | Cis-9-Undecenyl-acetate | 3 | 10 | activators | 18 | 115
5 | CCCC/C=C\CCCCCCCCO [Cis-9-Tetradecenol] | 8 | 35 | activators | 15 | 105
6 | CCCCC/C=C\CCCCCCO [Cis-7-Tridecenol] | 9 | 60 | activators | 12 | 80
7 | CCCCCCCCCC/C=C\CCCCC(C)C [Cis-2-methyl-7-Octadecene] | 8 | 45 | activators | 8 | 60
8 | CCCCC/C=C\CCCCCCCCO [Cis-9-Pentadecenol] | 6 | 30 | activators | 14 | 95
9 | Heneicosene-11-one | 12 | 22 | activators | 12 | 42
10 | CCCCCC/C=C\CCCCCC=O [Cis-7-Tetradecenal] | 5 | 10 | activators | 7 | 20
11 | CCCC/C=C/CCCCOC(C)=O [Trans-5-decenyl-acetate] | 4 | 18 | activators | 1 | 
12 | CCCC/C=C\CCCCCCCCC/C=C/C=O [Trans-2,Cis-13-Octadecadienal] | 8 | 40 | activators | 4 | 30
13 | CCCCCC(C)=O [2-Heptanone] | 7 | 50 | activators | 5 | 14
14 | C/C=C/CCCCCCCCCO [Trans-10-Dodecenol] | 10 | 60 | activators | 2 | 10
15 | CCCCCC/C=C\CCCCCCO [Cis-7-Tetradecenol] | 9 | 25 | activators | 9 | 30
16 | CC/C=C\C/C=C\CCC/C=C/CCO [Trans-3,Cis-8,Cis-11-Tetradecatrienol] | 5 | 50 | activators | 6 | 10
17 | C=CC(C)(C)O [2-methyl-3-butene-2-ol] |  |  | activators | 5 | 35
18 | CCCCC/C=C\CCCC(=O)CCCCCCCCCC [cis-6-heneicosene-11-one] |  |  | activators |  | 
19 | CCC(C)CCCC/C=C\CCCCCCC=O (stereo not drawn) [14-methyl-Cis-8-Hexadecenal] | 3 | 15 | activators | 10 | 75
20 | CCCC/C=C\CCCCCCOC(C)=O [Cis-7-Dodecenyl-acetate] | 8 | 17 | activators | 7 | 20
